In ChEMBL document CHEMBL6127149, “Novel Papain-Like Protease Inhibitors for Treating Viral Infections, in Particular Coronavirus Infections” (ACS Med Chem Lett, 2024) one finds IC50 data, which are given here for 4 molecules.

This assay has as its target Replicase polyprotein 1ab (Severe acute respiratory syndrome coronavirus 2, UniProt P0DTD1). Nature of the assay: Inhibition of SARS-CoV-2 PLpro using Z-RLRGG-AMC as substrate preincubated for 30 mins followed by substrate addition and measured after 60 mins by SpectraMax microplate reader analysis.
Turning to `CCOC(=O)[C@@H]1O[C@H]1C(=O)NNC(=O)CCc1ccccc1C(=O)N[C@H](N)c1cc(-c2cnn(C)c2)nc2ccccc12`, it took 2 nM to reach half-maximal inhibition (IC50).

Take `COC(=O)[C@H]1O[C@@H]1C(=O)NNC(=O)CCc1ccccc1C(=O)N[C@H](N)c1cc(-c2cnn(C)c2)nc2ccccc12`: it took 2 nM to reach half-maximal inhibition (IC50).

`CCOC(=O)[C@H]1O[C@@H]1C(=O)NNC(=O)CCc1ccccc1C(=O)N[C@H](N)c1cc(-c2cnn(C)c2)nc2ccccc12` came in with an IC50 of 2 nM. As for `Cn1cc(-c2cc([C@@H](N)NC(=O)c3ccccc3CCC(=O)NNC(=O)[C@H]3O[C@@H]3C(=O)O)c3ccccc3n2)cn1`, the figure is 1 nM.

For orientation: IC50 means the concentration that gives 50% inhibition. A higher IC50 goes with weaker potency.
